Source: patent publication US7462600B2, “Macrolides” (Pfizer Inc, priority 2004, dated 2008)
Converted amounts (≈) assume the structure as drawn.

Tests used:
Type in all cases: cell-based
[1] = system: Streptococcus pneumoniae 1175; details: Streptococcus pneumoniae 1175; microtiter broth dilution
How it was run: (§1)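 MIC read-out follows NCCLS M100-S14 interpretation of microtiter tray broth dilution. Test agents are prepared as DMSO stocks at 40 mg/ml.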

[2] = system: Streptococcus pneumoniae 1095; details: Streptococcus pneumoniae 1095; microtiter broth dilution
How it was run: as §1

[3] = system: Streptococcus pneumoniae 1016; assay: MIC, microtiter broth dilution (NCCLS M100-S14), S. pneumoniae 1016 (susceptible); details: Streptococcus pneumoniae 1016
How it was run: as §1

[4] = system: Streptococcus pyogenes 1079; assay: MIC, microtiter broth dilution (NCCLS M100-S14), S. pyogenes 1079 (ermB); details: Streptococcus pyogenes 1079
How it was run: as §1

[5] = system: Haemophilus influenzae 1218; assay: MIC, microtiter broth dilution (NCCLS M100-S14), H. influenzae 1218 (susceptible); details: Haemophilus influenzae 1218
How it was run: as §1

SMILES	MIC S. pneumo. 1175 [1]	MIC S. pneumo. 1095 [2]	MIC S. pneumo. 1016 [3]	MIC S. pyogenes 1079 [4]	MIC H. influenzae 1218 [5]
CCc1nn(C)c2ccc(S(=O)(=O)N3CC(N4C(=O)OC5(C)C(CC)OC(=O)C(C)C(=O)C(C)C(OC6OC(C)CC(N(C)C)C6O)C(C)(OC)CC(C)C(=O)C(C)C45)C3)cc12 (stereo not drawn) [Example 3.117, 3-descladinosyl-11,12-dideoxy-6-O-methyl-3-oxo-12,11-(oxycarbonyl-(1-(3-ethyl-1-methyl-1H-indazole-5-sulfonyl)-azetidin-3-yl)-imino)-erythromycin A]	<0.063 µg/mL	<0.063 µg/mL	<0.063 µg/mL	1 µg/mL (≈ 1.12 µM)	1 µg/mL (≈ 1.12 µM)
CCC1OC(=O)C(C)C(=O)C(C)C(OC2OC(C)CC(N(C)C)C2O)C(C)(OC)CC(C)C(=O)C(C)C2N(CC3CN(C(c4ccccc4)c4ccccc4)C3)C(=O)OC12C (stereo not drawn) [Example 4.01, 3-descladinosyl-11,12-dideoxy-6-O-methyl-3-oxo-12,11-(oxycarbonyl-(1-(benzhydryl)-(azetidin-3-yl)-methyl)-imino)-erythromycin A]	0.39 µg/mL (≈ 0.46 µM)	0.39 µg/mL (≈ 0.46 µM)	<0.00 µg/mL	6.25 µg/mL (≈ 7.37 µM)	6.25 µg/mL (≈ 7.37 µM)
CCC1OC(=O)C(C)C(=O)C(C)C(OC2OC(C)CC(N(C)C)C2O)C(C)(OC)CC(C)C(=O)C(C)C2N(CC3CN(Cc4ccc5ncccc5c4)C3)C(=O)OC12C (stereo not drawn) [Example 4.14, 3-descladinosyl-11,12-dideoxy-6-O-methyl-3-oxo-12,11-(oxycarbonyl-(1-((quinolin-6-yl)-methyl)-(azetidin-3-yl)-methyl)-imino)-erythromycin A]	<0.06 µg/mL	<0.06 µg/mL	<0.06 µg/mL	8 µg/mL (≈ 9.72 µM)	0.5 µg/mL (≈ 0.608 µM)
CCC1OC(=O)C(C)C(=O)C(C)C(OC2OC(C)CC(N(C)C)C2O)C(C)(OC)CC(C)C(=O)C(C)C2N(CC3CN(Cc4c[nH]c5ncccc45)C3)C(=O)OC12C (stereo not drawn) [Example 4.18, 3-descladinosyl-11,12-dideoxy-6-O-methyl-3-oxo-12,11-(oxycarbonyl-(1-((1H-pyrrolo[2,3-b]pyridin-3-yl)-methyl)-(azetidin-3-yl)-methyl)-imino)-erythromycin A]	0.5 µg/mL (≈ 0.616 µM)	0.12 µg/mL (≈ 0.148 µM)	<0.06 µg/mL	8 µg/mL (≈ 9.85 µM)	0.25 µg/mL (≈ 0.308 µM)
CCC1OC(=O)C(C)C(=O)C(C)C(OC2OC(C)CC(N(C)C)C2O)C(C)(OC)CC(C)C(=O)C(C)C2N(CC3CN(Cc4c(C)ccc5nc[nH]c45)C3)C(=O)OC12C.O=CO (stereo not drawn) [Example 4.44, 3-descladinosyl-11,12-dideoxy-6-O-methyl-3-oxo-12,11-(oxycarbonyl-(1-((6-methyl-1H-benzo[d]imidazol-7-yl)-methyl)-(azetidin-3-yl)-methyl)-imino)-erythromycin A]	<0.06 µg/mL	0.5 µg/mL	<0.06 µg/mL	8 µg/mL	0.25 µg/mL
CC[C@H]1OC(=O)[C@H](C)[C@@H](OC(=O)N2CCCC2)[C@H](C)[C@@H](O[C@@H]2O[C@H](C)C[C@H](N(C)C)[C@H]2O)[C@](C)(OC)C[C@@H](C)C(=O)[C@H](C)[C@H]2N(CC3CN(C(=O)c4ccnc5ccccc45)C3)C(=O)O[C@]12C [Example 5.01, 2-R^2: quinoline-4-carboxyl; R^#: pyrrolidin-1-yl]	<0.06 µg/mL	0.5 µg/mL (≈ 0.534 µM)	<0.06 µg/mL	64 µg/mL (≈ 68.4 µM)	2 µg/mL (≈ 2.14 µM)
CC[C@H]1OC(=O)[C@H](C)[C@@H](OC(=O)N2CCCC2C)[C@H](C)[C@@H](O[C@@H]2O[C@H](C)C[C@H](N(C)C)[C@H]2O)[C@](C)(OC)C[C@@H](C)C(=O)[C@H](C)[C@H]2N(CC3CN(Cc4c[nH]c5ncccc45)C3)C(=O)O[C@]12C (stereo partly drawn) [Example 5.03, 3-descladinosyl-11,12-dideoxy-6-O-methyl-12,11-(oxycarbonyl-(1-((1H-pyrrolo[2,3-b]pyridin-3-yl)-methyl)-(azetidin-3-yl)-methyl)-imino)-3-((2-methylpyrrolidine)-1-carbonyl)-erythromycin A]	<0.06 µg/mL	<0.06 µg/mL	<0.06 µg/mL	0.5 µg/mL (≈ 0.54 µM)	2 µg/mL (≈ 2.16 µM)
CC[C@H]1OC(=O)[C@H](C)[C@@H](OC(=O)N2CCCC2C)[C@H](C)[C@@H](O[C@@H]2O[C@H](C)C[C@H](N(C)C)[C@H]2O)[C@](C)(OC)C[C@@H](C)C(=O)[C@H](C)[C@H]2N(CC3CN(Cc4cccc5cccnc45)C3)C(=O)O[C@]12C (stereo partly drawn) [Example 5.04]	<0.06 µg/mL	<0.06 µg/mL	<0.06 µg/mL	4 µg/mL (≈ 4.27 µM)	1 µg/mL (≈ 1.07 µM)
CC[C@H]1OC(=O)[C@H](C)[C@@H](OC(=O)N2CCCC2c2cccc(F)c2)[C@H](C)[C@@H](O[C@@H]2O[C@H](C)C[C@H](N(C)C)[C@H]2O)[C@](C)(OC)C[C@@H](C)C(=O)[C@H](C)[C@H]2N(CC3CN(Cc4c[nH]c5ncccc45)C3)C(=O)O[C@]12C (stereo partly drawn) [Example 5.05, 3-descladinosyl-11,12-dideoxy-6-O-methyl-12,11-(oxycarbonyl-(1-((1H-pyrrolo[2,3-b]pyridin-3-yl)-methyl)-(azetidin-3-yl)-methyl)-imino)-3-((2-(3-fluorophenyl)-pyrrolidine)-1-carbonyl)-erythromycin A]	0.5 µg/mL (≈ 0.497 µM)	2 µg/mL (≈ 1.99 µM)	<0.06 µg/mL	4 µg/mL (≈ 3.98 µM)	8 µg/mL (≈ 7.96 µM)
CC[C@H]1OC(=O)[C@H](C)[C@@H](OC(=O)N2CCCC2c2cccc(F)c2)[C@H](C)[C@@H](O[C@@H]2O[C@H](C)C[C@H](N(C)C)[C@H]2O)[C@](C)(OC)C[C@@H](C)C(=O)[C@H](C)[C@H]2N(CC3CN(Cc4c[nH]c5ncccc45)C3)C(=O)O[C@]12C (stereo partly drawn) [Example 5.06, 3-descladinosyl-11,12-dideoxy-4-O-methyl-12,11-(oxycarbonyl-(1-((1H-pyrrolo[2,3-b]pyridin-3-yl)-methyl)-(azetidin-3-yl)-methyl)-imino)-3-((2-(3-fluorophenyl)-pyrrolidine)-1-carbonyl)-erythromycin A]	<0.06 µg/mL	<0.06 µg/mL	<0.06 µg/mL	0.25 µg/mL (≈ 0.249 µM)	2 µg/mL (≈ 1.99 µM)
CC[C@H]1OC(=O)[C@H](C)[C@@H](OC(=O)N2CCCC2)[C@H](C)[C@@H](O[C@@H]2O[C@H](C)C[C@H](N(C)C)[C@H]2O)[C@](C)(OC)C[C@@H](C)C(=O)[C@H](C)[C@H]2N(CC3CN(C(=O)c4cccc5cccnc45)C3)C(=O)O[C@]12C [Example 5.07, 2-R^2: quinoline-8-carboxyl; R^#: pyrrolidin-1-yl]	<0.06 µg/mL	0.25 µg/mL (≈ 0.267 µM)	<0.06 µg/mL	16 µg/mL (≈ 17.1 µM)	4 µg/mL (≈ 4.27 µM)
CC[C@H]1OC(=O)[C@H](C)[C@@H](OC(=O)N2CCCC2)[C@H](C)[C@@H](O[C@@H]2O[C@H](C)C[C@H](N(C)C)[C@H]2O)[C@](C)(OC)C[C@@H](C)C(=O)[C@H](C)[C@H]2N(CC3CN(Cc4cccc5cccnc45)C3)C(=O)O[C@]12C [Example 5.08, 2-R^2: (quinolin-8-yl)methyl; R^#: pyrrolidin-1-yl]	<0.06 µg/mL	0.25 µg/mL (≈ 0.271 µM)	<0.06 µg/mL	16 µg/mL (≈ 17.4 µM)	2 µg/mL (≈ 2.17 µM)
CC[C@H]1OC(=O)[C@H](C)[C@@H](OC(=O)N2CCCC2)[C@H](C)[C@@H](O[C@@H]2O[C@H](C)C[C@H](N(C)C)[C@H]2O)[C@](C)(OC)C[C@@H](C)C(=O)[C@H](C)[C@H]2N(CC3CN(Cc4nccc5ccccc45)C3)C(=O)O[C@]12C [Example 5.09, 2-R^2: (isoquinolin-1-yl)methyl; R^#: pyrrolidin-1-yl]	<0.06 µg/mL	1 µg/mL (≈ 1.08 µM)	<0.06 µg/mL	64 µg/mL (≈ 69.4 µM)	2 µg/mL (≈ 2.17 µM)
CC[C@H]1OC(=O)[C@H](C)[C@@H](OC(=O)N2CCCC2)[C@H](C)[C@@H](O[C@@H]2O[C@H](C)C[C@H](N(C)C)[C@H]2O)[C@](C)(OC)C[C@@H](C)C(=O)[C@H](C)[C@H]2N(CC3CN(Cc4c[nH]c5ncccc45)C3)C(=O)O[C@]12C [Example 5.10, 3-descladinosyl-11,12-dideoxy-6-O-methyl-12,11-(oxycarbonyl-(1-((1H-pyrrolo[2,3-b]pyridin-3-yl)-methyl)-(azetidin-3-yl)-methyl)-imino)-3-(pyrrolidine-1-carbonyl)-erythromycin A]	<0.06 µg/mL	<0.06 µg/mL	<0.06 µg/mL	2 µg/mL (≈ 2.2 µM)	1 µg/mL (≈ 1.1 µM)
CC[C@H]1OC(=O)[C@H](C)[C@@H](OC(=O)N2CCCC2)[C@H](C)[C@@H](O[C@@H]2O[C@H](C)C[C@H](N(C)C)[C@H]2O)[C@](C)(OC)C[C@@H](C)C(=O)[C@H](C)[C@H]2N(CC3CN(Cc4nc5ccccc5[nH]4)C3)C(=O)O[C@]12C [Example 5.11, 2-R^2: (1H-benzo[d]imidazol-2-yl)methyl; R^#: pyrrolidin-1-yl]	<0.06 µg/mL	1 µg/mL (≈ 1.1 µM)	<0.06 µg/mL	32 µg/mL (≈ 35.1 µM)	1 µg/mL (≈ 1.1 µM)
